The values below come from patent US7858618B2, “Compounds” (Boehringer Ingelheim International GmbH, priority 2006, dated 2010).

One series deals with T1, hBK1 receptor (Homo sapiens, UniProt P46663).
T1 construct: expressed in transfected cells; host or cells: CHO cells
T1 sequence (P46663 1-353): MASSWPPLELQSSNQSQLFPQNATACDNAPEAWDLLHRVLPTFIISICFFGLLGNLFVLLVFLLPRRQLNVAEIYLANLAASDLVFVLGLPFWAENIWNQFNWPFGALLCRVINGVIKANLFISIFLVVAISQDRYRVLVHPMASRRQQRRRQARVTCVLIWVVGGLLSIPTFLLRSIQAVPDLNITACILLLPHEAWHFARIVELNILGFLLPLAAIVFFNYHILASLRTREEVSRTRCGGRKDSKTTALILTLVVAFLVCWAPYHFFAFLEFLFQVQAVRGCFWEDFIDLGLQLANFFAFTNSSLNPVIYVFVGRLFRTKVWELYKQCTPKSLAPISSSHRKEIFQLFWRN
The experiment in a line: hBK1 receptor binding (displacement of [3H]-kallidin (DesArg10, Leu9) from membranes of CHO cells expressing the hBK1 receptor). The conditions noted are these: CHO cell membranes expressing hBK1 receptor; 0.5 to 1.0 nM [3H]-kallidin (DesArg10, Leu9); 60 minutes at room temperature. Here is the method: Description of the Method of hBK1 Receptor Binding
CHO cells expressing the hBK1 receptor are cultivated in Dulbecco's modified medium. The medium from confluent cultures is removed and the cells are washed with PBS buffer, scraped off and isolated by centrifugation. The cells are then homogenized in suspension and the homogenate is centrifuged and resuspended. The protein content is determined and the membrane preparation obtained in this manner is then frozen at −80° C.
After thawing, 200 μl of the homogenate (50 to 100 μg of proteins/assay) are incubated at room temperature with 0.5 to 1.0 nM of kallidin (DesArg10, Leu9), [3,4-prolyl-3,43H(N)] and increasing concentrations of the test substance in a total volume of 250 μl for 60 minutes. The incubation is terminated by rapid filtration through GF/B glass fibre filters which had been pretreated with polyethyleneimine (0.3%). The protein-bound radioactivity is measured in a TopCount NXT. Non-specific binding is defined as radioactivity bound in the presence of 1.0 μM of kallidin (DesArg10, Leu9), [3,4-prolyl-3,43H(N)]. The concentration/binding curve is analysed using a computer-assisted nonlinear curve fitting. The Ki which corresponds to the test substance is determined using the data obtained in this manner. […]
What is called Ki is the dissociation constant of the complex between target and ligand, obtained from inhibition or displacement. Read a high Ki as a looser hold on the target. `COc1cc(C)c(S(=O)(=O)N(C)CCOCC(=O)N(C)Cc2ccc(-c3cn(C)c(C)n3)cc2)c(C)c1` [(67)] gave a Ki of 0.4 nM.
In turn, `COc1cc(C)c(S(=O)(=O)N(C)CCOCC(=O)N(C)[C@H]2CC[C@@H](CCN3CCCC3)CC2)c(C)c1` [(435)] showed an inhibitory constant (Ki) of 1.5 nM.
Compound `COc1cc(C)c(S(=O)(=O)N(C)CCOCC(=O)N(C)Cc2ccc(OCC3CCCN3C)cc2)c(C)c1` (centres unmarked) [(402)] gave a Ki of 9.3 nM.
Still for that read-out and setting: to `CNc1ccc2cc(CN(C)C(=O)COCCN(C)S(=O)(=O)c3c(C)cc(OC)cc3C)ccc2n1` [(367)] belongs 2.7 nM.
In turn, `COc1cc(C)c(S(=O)(=O)N(C)CCOCC(=O)N(C)C2CCc3cc(CN4CCCC4)ccc32)c(C)c1` (centres unmarked) [(424)] returned a Ki of 1.4 nM.
For `COc1cc(C)c(S(=O)(=O)N(C)CCOCC(=O)N(C)C2CCCN(C3CCN(C)CC3)CC2)c(C)c1` (centres unmarked) [(451)], the Ki was 9 nM.
The compound `CCN(CC)CC1CCN(c2ccc(NC(=O)CCN(C)S(=O)(=O)c3c(C)cc(OC)cc3C)cc2C)CC1` [(97)] returned a Ki of 6.7 nM.
On the same count and under the same terms, the result for `COc1cc(C)c(S(=O)(=O)N(C)CCOCC(=O)N(C)CC2CCN(C3CCN(C)CC3)CC2)c(C)c1` [(384)] reads 9.3 nM; that for `COc1cc(C)c(S(=O)(=O)N(C)CCOCC(=O)N(C)C2CCN(C3CCN(C)CC3)CC2)c(C)c1` [(397)], 7.5 nM.
Still for that read-out and setting: the result for `COc1cc(C)c(S(=O)(=O)N(C)CCOCC(=O)N(C)C[C@H]2CC[C@@H](NCCN(C)C)CC2)c(C)c1` [(383)] reads 6.2 nM; that for `COc1cc(C)c(S(=O)(=O)N(C)CCOCC(=O)N(C)C(C)c2ccc3c(c2)CCN(C)CC3)c(C)c1` (centres unmarked) [(386)], 6.3 nM; that for `COc1cc(C)c(S(=O)(=O)N(C)CCOCC(=O)N(C)C[C@@H]2CC[C@H](CN3CCCC3)C2)c(C)c1` [(425)], 8.3 nM.
Take `COc1cc(C)c(S(=O)(=O)N(C)CCC(=O)NC2CCN(c3ncc(CN4CCCC4)cc3Cl)CC2)c(C)c1` [(216)]: the affinity corresponds to a Ki of 4.9 nM.
`COc1cc(C)c(S(=O)(=O)N(C)CCOCC(=O)N(C)Cc2ccc(CN(C)C3CCCC3)cc2)c(C)c1` [(102)]: the Ki is 5 nM.
Same read-out and setting: to `COc1cc(C)c(S(=O)(=O)N(C)CCOCC(=O)N(C)C[C@H]2CC[C@@](C)(CN3CCC3)C2(C)C)c(C)c1` [(621)] belongs 5.8 nM; to `COc1cc(C)c(S(=O)(=O)N(C)CCC(=O)Nc2ccc(N3CCC(N(C)C)CC3)c(Cl)c2)c(C)c1` [(180)], 5.2 nM.
Still for that read-out and setting: the result for `COc1cc(C)c(S(=O)(=O)N(C)CCOCC(=O)N(C)C2CCC(N3CCC(C4CCN(C)CC4)CC3)CC2)c(C)c1` (centres unmarked) [(588)] reads 1.5 nM.
Turning to `COc1cc(C)c(S(=O)(=O)N(C)CCOCC(=O)N(C)[C@H]2CC[C@@H](CCN3CCN(C)CC3)CC2)c(C)c1` [(464)], the inhibition constant Ki was 1.5 nM.
Still for that read-out and setting: to `CN(CCC(=O)Nc1ccc(N2CCN(c3ccncc3)CC2)cc1)S(=O)(=O)c1cccc(Cl)c1Cl` [(1)] belongs 6.2 nM.
The same measure, in the same setting: to `COc1cc(C)c(S(=O)(=O)N(C)CCOCC(=O)N(C)[C@@H]2CCC[C@H](N3CCN(C)CC3)C2)c(C)c1` [(421)] belongs 8.7 nM.
Same read-out and setting: to `COc1cc(C)c(S(=O)(=O)N(C)CCOCC(=O)N(C)[C@@H]2CCN([C@H]3CC[C@@H](N4CCCC4)CC3)C2)c(C)c1` [(448)] belongs 0.82 nM; to `COc1cc(C)c(S(=O)(=O)N(C)CCOCC(=O)N(C)CC2CCC(N3CCCC(N(C)C)C3)CC2)c(C)c1` (centres unmarked) [(587)], 9.5 nM.
Take `COc1cc(C)c(S(=O)(=O)N(C)CCOCC(=O)N(C)CC2CCN(c3cc[n+](C)cc3)CC2)c(C)c1` [(114)]: the Ki was 4.4 nM.
The same measure, in the same setting: to `COc1cc(C)c(S(=O)(=O)N(C)CCOCC(=O)N(C)C2CCN(C(=O)CCN3CCCC3)CC2)c(C)c1` [(630)] belongs 5.5 nM; to `COc1cc(C)c(S(=O)(=O)N(C)CCOCC(=O)N(C)C[C@H]2CC[C@@H](N(C)CCN(C)C)CC2)c(C)c1` [(428)], 6.3 nM; to `COc1cc(C)c(S(=O)(=O)N(C)CCOCC(=O)N(C)[C@H]2CC[C@@H](CN3CC[C@@H](N4CCCC4)C3)CC2)c(C)c1` [(472)], 0.68 nM.
Still for that read-out and setting: to `COc1cc(C)c(S(=O)(=O)N(C)CCOCC(=O)N(C)[C@H]2CC[C@@H](CN3CCC[C@@H](N(C)C)C3)CC2)c(C)c1` [(476)] belongs 2.35 nM; to `CCN(CC)CC1CCN(c2ccc(NC(=O)CCN(C)S(=O)(=O)c3c(C)cc(OC)cc3C)cc2Cl)CC1` [(181)], 7.1 nM.
`COc1cc(C)c(S(=O)(=O)N(C)CCOCC(=O)N(C)[C@H]2CCN(C3CCN(CC4CC4)CC3)C2)c(C)c1` [(465)]: the Ki amounted to 3.8 nM.
`COc1cc(C)c(S(=O)(=O)N(C)CCOCC(=O)N(C)[C@H]2CC[C@H](CCN3CCCC3)CC2)c(C)c1` [(439)]: the inhibitory constant (Ki) was 7.5 nM.
For the compound `COc1cc(C)c(S(=O)(=O)N(C)CCOCC(=O)N(C)C[C@]2(C)CC[C@H](CN3CCCC3)C2(C)C)c(C)c1` [(423)], the Ki was 3.4 nM.
Same read-out and setting: to `COc1cc(C)c(S(=O)(=O)N(C)CCOCC(=O)N(C)[C@H]2CC[C@@H](CN3CCC(N(C)C)C3)CC2)c(C)c1` (some centres unmarked) [(444)] belongs 6.9 nM; to `COc1cc(C)c(S(=O)(=O)N(C)CCOCC(=O)N(C)Cc2ccc(N3CCC(N4CCCC4)C3)cc2Cl)c(C)c1` (centres unmarked) [(445)], 5.6 nM; to `COc1cc(C)c(S(=O)(=O)N(C)CCOCC(=O)N(C)Cc2ccc(CNC(C)C)cc2)c(C)c1` [(59)], 6.3 nM.
For `COc1cc(C)c(S(=O)(=O)N(C)CCOCC(=O)N(C)Cc2ccc3[nH]c(N)nc3c2)c(C)c1` [(361)], the Ki is 7.4 nM.
With `COc1cc(C)c(S(=O)(=O)N(C)CCCCC(=O)N(C)CC2CCN(c3ccncc3)CC2)c(C)c1` [(130)], the Ki is 5.7 nM.
Consider `COc1cc(C)c(S(=O)(=O)N(C)CCOCC(=O)N(C)[C@@H]2CCN(C3CCN(CC4CC4)CC3)C2)c(C)c1` [(458)], for which the Ki was found to be 4.3 nM.
As to `COc1cc(C)c(S(=O)(=O)N(C)CCC(=O)Nc2ccc(N3CCN(c4ccncc4)CC3)cc2)c(C)c1` [(13)], affinity was put at a Ki of 2.1 nM.
The same measure, in the same setting: the result for `COc1cc(C)c(S(=O)(=O)N(C)CCOCC(=O)N(C)CC2CCN(c3ccnc(C)c3)CC2)c(C)c1` [(53)] reads 2.4 nM; that for `COc1cc(C)c(S(=O)(=O)N(C)CCOCC(=O)N(C)Cc2ccc(N3CCCC3CN(C)C)cc2)c(C)c1` (centres unmarked) [(335)], 9.37 nM.
`COc1cc(C)c(S(=O)(=O)N(C)CCC(=O)Nc2cc(C)c(N3CCC(N(C)C)CC3)cc2Cl)c(C)c1` [(186)] yielded an inhibitory constant (Ki) of 3.4 nM.
Turning to `COc1cc(C)c(S(=O)(=O)N(C)CCOCC(=O)N(C)[C@H]2CC[C@@H](CN3CC[C@H](N4CCCC4)C3)CC2)c(C)c1` [(471)], the Ki amounted to 4.1 nM.
`COc1cc(C)c(S(=O)(=O)N(C)CCOCC(=O)N(C)C(C)[C@H]2CC[C@H](CN3CCCC3)CC2)c(C)c1` (some centres unmarked) [(616)] showed an inhibition constant (Ki) of 3.7 nM.
For the compound `COc1cc(C)c(S(=O)(=O)N(C)CCOCC(=O)N(C)Cc2ccc3nc(N(C)C)ccc3c2)c(C)c1` [(365)], the Ki amounted to 2.4 nM.
`COc1cc(C)c(S(=O)(=O)N(C)CCOCC(=O)N(C)Cc2ccc(-c3cn4ccccc4n3)cc2)c(C)c1` [(73)]: the affinity, expressed as Ki, was 6.8 nM.
In the case of `COc1cc(C)c(S(=O)(=O)N(C)CC(=O)NCC(=O)N(C)Cc2ccc(NCCN(C)C)cc2)c(C)c1` [(492)], the affinity, expressed as Ki, was 3.2 nM.
With `COc1cc(C)c(S(=O)(=O)N(C)CCOCC(=O)N(C)[C@@H]2CCN(C3CCN(C(C)C)CC3)C2)c(C)c1` [(398)], the inhibition constant Ki turned out to be 0.74 nM.
Still for that read-out and setting: the result for `COc1cc(C)c(S(=O)(=O)N(C)CCOCC(=O)N(C)[C@H]2CC[C@@H](OCCN(C)C)CC2)c(C)c1` [(613)] reads 9.7 nM; that for `COc1cc(C)c(S(=O)(=O)N(C)CCOCC(=O)N(C)C2CCC(N3CCC(CN4CCCC4)CC3)CC2)c(C)c1` (centres unmarked) [(419)], 0.65 nM; that for `COc1cc(C)c(S(=O)(=O)N(C)CCOCC(=O)N(C)C2CCC(C3CCN(C)CC3)CC2)c(C)c1` (centres unmarked) [(477)], 5.8 nM.
Compound `COc1cc(C)c(S(=O)(=O)N(C)CCOCC(=O)N(C)[C@H]2CC[C@@H](N3CCN(C)CC3)CC2)c(C)c1` [(589)] returned a Ki of 5.1 nM.
For `COc1cc(C)c(S(=O)(=O)N(C)CCOCC(=O)N(C)CC2CCN(C(=O)CCN3CCCC3)CC2)c(C)c1` [(475)], affinity was put at a Ki of 2.4 nM.
On to `COc1cc(C)c(S(=O)(=O)N(C)CCOCC(=O)N(C)Cc2ccc(-c3c[nH]c(C)n3)cc2)c(C)c1` [(117)], for which affinity was put at a Ki of 0.99 nM.
On to `COc1cc(C)c(S(=O)(=O)N(C)CCOCC(=O)N(C)Cc2ccc(OCCN3CCCC3)cc2)c(C)c1` [(358)], for which the Ki stood at 3.5 nM.
In turn, `COc1cc(C)c(S(=O)(=O)N(C)CCOCC(=O)N(C)Cc2ccc3nc(N)ccc3c2)c(C)c1` [(360)] returned a Ki of 4.4 nM.

System in a further series: not given
Experiment: not given
Details: not given
One may read the melting point as the temperature of the solid-liquid transition. `CCN(CC)CC1CCN(c2ccc(NC(=O)CCN(C)S(=O)(=O)c3c(C)cc(OC)cc3C)nn2)CC1` [Example 87]: the melting point stood at 173 °C.
